Source: patent publication US5258406A, “Sulfonimidamides” (priority 1992, dated 1993)
Like-named read-outs stand apart in the source and are kept apart here.

How the values were obtained:
Type in all cases: in vivo
[1] = tested on: X5563 Plasma Cell Myeloma; details: IP, DX 10
Protocol: (§1) The compounds were tested in C3H mice bearing a 6C3HED lymphosarcoma, also known as the Gardner lymphosarcoma (GLS), and in a variety of human tumor xenografts in CD1 nu/nu mice, including CX-1, LX-1, HXGC3, and VRC5. The 6C3HED lymphosarcoma was obtained from the Division of Cancer Treatment, National […] Institute, Tumor Bank, maintained at E. G. and G. Mason Research (Worcester, Mass.). The CX-1 human colon carcinoma and the LX-1 human lung carcinoma xenografts were obtained from the National Cancer Institute. The HXGC3 and VRC5 human colon xenografts were obtained from Dr. P. J. Houghton, St. Jude Children's Hospital in Memphis (see Br. J. Cancer, 37, 213 (1978)). First passage tumor was stored in liquid nitrogen using standard techniques. The transplanted tumor was reestablished from the Tumor Bank every six months or as needed. The tumor was maintained by serial passage twice weekly in C3H mice.
(§2) In the procedure the tumor was removed from passage animals and minced into 1- to 3-mm square fragments using sterile techniques. Tumor pieces were checked for sterility using both Antibiotic Medium 1 and Brain Heart Infusion (Difco, Detroit, Mich.). Recipient mice were shaved and tumor pieces were implanted subcutaneously in the auxiliary region by trocar. Drug therapy on the appropriate schedule was initiated on the day after tumor implant for 6C3HED and after a seven (7) day delay for xenografts (or other delay as noted in Table 2). The compound being tested was mixed with 2.5% Emulphor EL620 from GAF Corporation (1:40 dilution in saline). Food and water were provided ad libitium. The drug was administered orally in 0.5 ml of 2.5% Emulphor (unless otherwise indicated). The tumor was measured the day after treatment ended with two dimensional measurements (width and length) of the tumor taken using automated digital calipers interfaced to a microcomputer. Approximate weight for the tumor was calculated using the following formula [Worzalla, J. F., et al., Invest. New Drugs, 8, 241 (1990], (tumor weight in mg)=(width in mm)^2 ×(length in mm)/2.
(§3) At least one control group of an equal number of mice was treated with the same volume of 2.5% Emulphor only. The percent inhibition was determined by subtracting the ratio of the mean tumor size of the test group relative to the control group from one and multiplying the result times 100.
(§4) The results of several experiments in mice bearing a 6C3HED lymphosarcoma (or other tumor where indicated) when the indicated compounds were administered are provided in Table 2. In Table 2, column 1 gives the Example number of the compound used, column 2 lists the dose level in mg/kg, column 3 provides the percent inhibition of tumor growth, column 4 gives the number of mice which died relative to the total number of animals in the group, column 5 gives the method of administration of the compound, and column 6 gives the dosage schedule. The protocol used with other tumors was the same as with the 6C3HED lymphosarcoma.
(p) Tumor type X5563 Plasma Cell Myeloma

colon carcinoma26 = details: IP, DX 10
Protocol: as §1, §2, §3, §4
(i) Tumor type colon carcinoma26

C3H mammary adenocarcin = details: IP, DX 10
Protocol: as §1, §2, §3, §4
(g) Tumor type C3H mammary adenocarcin

6C3HED lymphosarcoma = experiment: animal or person
ELC2 = experiment: Inhibition of ELC2 tumor growth in mice; details: IP, DX 10
Protocol: as §1, §2, §3, §4

## Cc1ccc(S(=N)(=O)NC(=O)Nc2ccc(Cl)cc2)cc1C (stereo not drawn) [Example 36, N-[[(4-chlorophenyl)amino]carbonyl]-3,4-dimethylbenzenesulfonimidamide]
[1]; 3.75 mg/kg
  % inhibition of tumor growth: 35%
  Tox/Tot (mice which died / total): 0/10
[1]; 7.5 mg/kg
  % inhibition of tumor growth: 63%
  Tox/Tot (mice which died / total): 1/10
[1]; 15 mg/kg
  % inhibition of tumor growth: 88%
  Tox/Tot (mice which died / total): 4/10
[1]; 30 mg/kg
  % inhibition of tumor growth: 97%
  Tox/Tot (mice which died / total): 3/10
Colon carcinoma26; 3.75 mg/kg
  % inhibition of tumor growth: 5%
  Tox/Tot (mice which died / total): 0/10
Colon carcinoma26; 7.5 mg/kg
  % inhibition of tumor growth: 14%
  Tox/Tot (mice which died / total): 0/10
Colon carcinoma26; 15 mg/kg
  % inhibition of tumor growth: 6%
  Tox/Tot (mice which died / total): 0/10
Colon carcinoma26; 30 mg/kg
  % inhibition of tumor growth: 26%
  Tox/Tot (mice which died / total): 0/10
C3H mammary adenocarcin; 3.75 mg/kg
  % inhibition of tumor growth: 38%
  Tox/Tot (mice which died / total): 1/10
C3H mammary adenocarcin; 7.5 mg/kg
  % inhibition of tumor growth: 69%
  Tox/Tot (mice which died / total): 0/10
C3H mammary adenocarcin; 15 mg/kg
  % inhibition of tumor growth: 74%
  Tox/Tot (mice which died / total): 6/10
C3H mammary adenocarcin; 30 mg/kg
  % inhibition of tumor growth: TOX
  Tox/Tot (mice which died / total): 10/10
6C3HED lymphosarcoma; IP, 0.25 mg/kg, BIDX 8
  Tox/Tot (mice which died / total): 0/10
6C3HED lymphosarcoma; IP, 0.5 mg/kg, BIDX 8
  Tox/Tot (mice which died / total): 0/10
6C3HED lymphosarcoma; IP, 1 mg/kg, BIDX 8
  Tox/Tot (mice which died / total): 0/10
6C3HED lymphosarcoma; IP, 2 mg/kg, BIDX 8
  Tox/Tot (mice which died / total): 0/10
6C3HED lymphosarcoma; IP, 3.125 mg/kg, DX 8
  Tox/Tot (mice which died / total): 0/10
6C3HED lymphosarcoma; IP, 4 mg/kg, BIDX 8
  Tox/Tot (mice which died / total): 0/10
6C3HED lymphosarcoma; IP, 6.25 mg/kg, DX 8
  Tox/Tot (mice which died / total): 0/10
6C3HED lymphosarcoma; IP, 12.5 mg/kg, DX 8
  Tox/Tot (mice which died / total): 1/10
6C3HED lymphosarcoma; IP, 12.5 mg/kg, Days 1, 3, 5, 7
  Tox/Tot (mice which died / total): 0/10
6C3HED lymphosarcoma; IP, 25 mg/kg, DX 8
  Tox/Tot (mice which died / total): 2/10
6C3HED lymphosarcoma; IP, 25 mg/kg, Days 1, 3, 5, 7
  Tox/Tot (mice which died / total): 0/10
6C3HED lymphosarcoma; IP, 50 mg/kg, DX 8
  Tox/Tot (mice which died / total): 6/10
6C3HED lymphosarcoma; IP, 50 mg/kg, Days 1, 3, 5, 7
  Tox/Tot (mice which died / total): 0/10
6C3HED lymphosarcoma; IP, 100 mg/kg, Days 1, 3, 5, 7
  Tox/Tot (mice which died / total): 3/10
6C3HED lymphosarcoma; Mus musculus, 6C3HED, ip, read-out: % inhibition of tumor growth, IP, 0.25 mg/kg, BIDX 8
  inhibition in vivo at 0.25 mg/kg: 16%
6C3HED lymphosarcoma; Mus musculus, 6C3HED, ip, read-out: % inhibition of tumor growth, IP, 0.5 mg/kg, BIDX 8
  inhibition in vivo at 0.5 mg/kg: 29%
6C3HED lymphosarcoma; Mus musculus, 6C3HED, ip, read-out: % inhibition of tumor growth, IP, 1 mg/kg, BIDX 8
  inhibition in vivo at 1 mg/kg: 43%
6C3HED lymphosarcoma; Mus musculus, 6C3HED, ip, read-out: % inhibition of tumor growth, IP, 2 mg/kg, BIDX 8
  inhibition in vivo at 2 mg/kg: 75%
6C3HED lymphosarcoma; Mus musculus, 6C3HED, ip, read-out: % inhibition of tumor growth, IP, 3.125 mg/kg, DX 8
  inhibition in vivo at 3.125 mg/kg: 74%
6C3HED lymphosarcoma; Mus musculus, 6C3HED, ip, read-out: % inhibition of tumor growth, IP, 4 mg/kg, BIDX 8
  inhibition in vivo at 4 mg/kg: 97%
6C3HED lymphosarcoma; Mus musculus, 6C3HED, ip, read-out: % inhibition of tumor growth, IP, 6.25 mg/kg, DX 8
  inhibition in vivo at 6.25 mg/kg: 93%
6C3HED lymphosarcoma; Mus musculus, 6C3HED, ip, read-out: % inhibition of tumor growth, IP, 12.5 mg/kg, DX 8
  inhibition in vivo at 12.5 mg/kg: 98%
6C3HED lymphosarcoma; Mus musculus, 6C3HED, ip, read-out: % inhibition of tumor growth, IP, 12.5 mg/kg, Days 1, 3, 5, 7
  inhibition in vivo at 12.5 mg/kg: 88%
6C3HED lymphosarcoma; Mus musculus, 6C3HED, ip, read-out: % inhibition of tumor growth, IP, 25 mg/kg, DX 8
  inhibition in vivo at 25 mg/kg: 100%
6C3HED lymphosarcoma; Mus musculus, 6C3HED, ip, read-out: % inhibition of tumor growth, IP, 25 mg/kg, Days 1, 3, 5, 7
  inhibition in vivo at 25 mg/kg: 99%
6C3HED lymphosarcoma; Mus musculus, 6C3HED, ip, read-out: % inhibition of tumor growth, IP, 50 mg/kg, DX 8
  inhibition in vivo at 50 mg/kg: 100%
6C3HED lymphosarcoma; Mus musculus, 6C3HED, ip, read-out: % inhibition of tumor growth, IP, 50 mg/kg, Days 1, 3, 5, 7
  inhibition in vivo at 50 mg/kg: 99%
6C3HED lymphosarcoma; Mus musculus, 6C3HED, ip, read-out: % inhibition of tumor growth, IP, 100 mg/kg, Days 1, 3, 5, 7
  inhibition in vivo at 100 mg/kg: 100%
6C3HED lymphosarcoma; Mus musculus, 6C3HED, po, read-out: % inhibition of tumor growth, oral, 6.25 mg/kg, BIDX 8
  inhibition in vivo at 6.25 mg/kg: 100%
6C3HED lymphosarcoma; Mus musculus, 6C3HED, po, read-out: % inhibition of tumor growth, oral, 12.5 mg/kg, BIDX 8
  inhibition in vivo at 12.5 mg/kg: 100%
6C3HED lymphosarcoma; Mus musculus, 6C3HED, po, read-out: % inhibition of tumor growth, oral, 25 mg/kg, BIDX 8
  inhibition in vivo at 25 mg/kg: 100%
6C3HED lymphosarcoma; Mus musculus, 6C3HED, po, read-out: % inhibition of tumor growth, oral, 50 mg/kg, BIDX 8
  inhibition in vivo at 50 mg/kg: 100%
6C3HED lymphosarcoma; Mus musculus, 6C3HED, po, read-out: % inhibition of tumor growth, oral, 150 mg/kg, BIDX 8
  inhibition in vivo at 150 mg/kg: 99%
6C3HED lymphosarcoma; oral, 6.25 mg/kg, BIDX 8
  Tox/Tot (mice which died / total): 2/8
6C3HED lymphosarcoma; oral, 12.5 mg/kg, BIDX 8
  Tox/Tot (mice which died / total): 5/8
6C3HED lymphosarcoma; oral, 25 mg/kg, BIDX 8
  Tox/Tot (mice which died / total): 2/8
6C3HED lymphosarcoma; oral, 50 mg/kg, BIDX 8
  Tox/Tot (mice which died / total): 7/8
6C3HED lymphosarcoma; oral, 100 mg/kg, BIDX 8
  % inhibition of tumor growth: TOX
  Tox/Tot (mice which died / total): 8/8
6C3HED lymphosarcoma; oral, 150 mg/kg, BIDX 8
  Tox/Tot (mice which died / total): 6/10
6C3HED lymphosarcoma; oral, 300 mg/kg, BIDX 8
  % inhibition of tumor growth: TOX
  Tox/Tot (mice which died / total): 10/10
ELC2; 7.5 mg/kg
  % inhibition of tumor growth: 0%
  Tox/Tot (mice which died / total): 0/10
ELC2; 15 mg/kg
  % inhibition of tumor growth: 3%
  Tox/Tot (mice which died / total): 0/10
ELC2; 30 mg/kg
  % inhibition of tumor growth: TOX
  Tox/Tot (mice which died / total): 10/10
